Experiments:
Assay in all cases: relative viability (nuclei count vs DMSO), 5 days (fraction); higher = more cells survive
[1] = compound: COc1cc(Nc2c(C#N)cnc3cc(OCCCN4CCN(C)CC4)c(OC)cc23)c(Cl)cc1Cl [Bosutinib] + CS(=O)(=O)CCNCc1ccc(-c2ccc3ncnc(Nc4ccc(OCc5cccc(F)c5)c(Cl)c4)c3c2)o1 [Lapatinib] (partner 2 µM)
Method in brief: (§1)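 Lung cancer cell lines were pin-tool dosed in 1536-well plates on the day after seeding, with either a lone drug or a fixed anchor-drug dose plus five library-drug doses (not always all listed) in √10 steps. Nuclei were counted on 4× images after 5 days. Relative viability is the ratio of treated-well to vehicle-well nuclei counts, with each value a median of duplicate plates.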

[2] = compound: COc1cc(Nc2c(C#N)cnc3cc(OCCCN4CCN(C)CC4)c(OC)cc23)c(Cl)cc1Cl [Bosutinib] + CS(=O)(=O)N1CCN(Cc2cc3nc(-c4cccc5[nH]ncc45)nc(N4CCOCC4)c3s2)CC1 [Pictilisib] (partner 1 µM)
Method in brief: as §1

[3] = compound: COc1cc(Nc2c(C#N)cnc3cc(OCCCN4CCN(C)CC4)c(OC)cc23)c(Cl)cc1Cl [Bosutinib] + CCNC(=O)c1noc(-c2cc(C(C)C)c(O)cc2O)c1-c1ccc(CN2CCOCC2)cc1 [Luminespib] (partner 0.01 µM)
Method in brief: as §1

[4] = compound: COc1cc(Nc2c(C#N)cnc3cc(OCCCN4CCN(C)CC4)c(OC)cc23)c(Cl)cc1Cl [Bosutinib] + CC(=O)c1c(C)c2cnc(Nc3ccc(N4CCNCC4)cn3)nc2n(C2CCCC2)c1=O [Palbociclib] (partner 0.5 µM)
Method in brief: as §1

[5] = compound: COc1cc(Nc2c(C#N)cnc3cc(OCCCN4CCN(C)CC4)c(OC)cc23)c(Cl)cc1Cl [Bosutinib] + CC(=O)Nc1cccc(-n2c(=O)n(C3CC3)c(=O)c3c(Nc4ccc(I)cc4F)n(C)c(=O)c(C)c32)c1 [Trametinib] (partner 0.02 µM)
Method in brief: as §1

| Cell Line | relative viability ([1]; first compound 0.01 µM) | relative viability ([1]; first compound 0.03162 µM) | relative viability ([1]; first compound 0.1 µM) | relative viability ([1]; first compound 1 µM) | relative viability ([2]; first compound 0.01 µM) | relative viability ([2]; first compound 0.03162 µM) | relative viability ([2]; first compound 0.1 µM) | relative viability ([2]; first compound 1 µM) | relative viability ([3]; first compound 0.01 µM) | relative viability ([3]; first compound 0.03162 µM) | relative viability ([3]; first compound 0.1 µM) | relative viability ([3]; first compound 1 µM) | relative viability ([4]; first compound 0.01 µM) | relative viability ([4]; first compound 0.03162 µM) | relative viability ([4]; first compound 0.1 µM) | relative viability ([4]; first compound 1 µM) | relative viability ([5]; first compound 0.01 µM) | relative viability ([5]; first compound 0.03162 µM) | relative viability ([5]; first compound 0.1 µM) | relative viability ([5]; first compound 1 µM) |
| --- | --- | --- | --- | --- | --- | --- | --- | --- | --- | --- | --- | --- | --- | --- | --- | --- | --- | --- | --- | --- |
| NCI-H1755 | 1.03 | 1.11 | 1.06 | 0.915 | 0.45 | 0.497 | 0.509 | 0.287 | 0.465 | 0.454 | 0.45 | 0.351 | 0.435 | 0.456 | 0.433 | 0.469 | 0.706 | 0.798 | 0.856 | 0.76 |
| NCI-H1792 | 0.892 | 0.866 | 0.918 | 0.866 | 0.299 | 0.27 | 0.367 | 0.332 | 0.528 | 0.35 | 0.411 | 0.367 | 0.686 | 0.588 | 0.724 | 0.728 | 0.478 | 0.416 | 0.437 | 0.316 |
| NCI-H1793 | 0.864 | 0.839 | 0.438 | 0.497 | 0.394 | 0.321 | 0.383 | 0.292 | 0.213 | 0.205 | 0.163 | 0.179 | 0.272 | 0.311 | 0.326 | 0.266 | 0.383 | 0.394 | 0.454 | 0.298 |
| NCI-H1915 | 0.919 | 0.965 | 0.991 | 1.06 | 1.04 | 0.988 | 1.02 | 0.968 | 0.768 | 0.816 | 0.815 | 0.64 | 0.521 | 0.513 | 0.544 | 0.56 | 0.306 | 0.291 | 0.295 | 0.253 |
| NCI-H1944 | 0.834 | 0.803 | 0.865 | 0.736 | 0.35 | 0.327 | 0.333 | 0.345 | 0.839 | 0.713 | 0.777 | 0.469 | 0.363 | 0.362 | 0.373 | 0.298 | 0.415 | 0.45 | 0.394 | 0.327 |
| NCI-H1975 | 0.907 | 0.842 | 0.839 | 0.712 | 0.283 | 0.318 | 0.338 | 0.253 | 0.244 | 0.252 | 0.21 | 0.141 | 0.572 | 0.638 | 0.625 | 0.516 | 0.29 | 0.329 | 0.42 | 0.322 |
| NCI-H1993 | 0.814 | 0.85 | 0.947 | 0.835 | 0.827 | 0.896 | 0.967 | 0.741 | 0.688 | 0.817 | 0.875 | 0.887 | 0.67 | 0.783 | 0.718 | 0.619 | 0.461 | 0.513 | 0.579 | 0.538 |
| NCI-H2009 | 0.905 | 1.02 | 1.05 | 0.716 | 0.997 | 0.866 | 0.927 | 0.557 | 1.01 | 1.08 | 1.06 | 0.671 | 0.246 | 0.302 | 0.195 | 0.147 | 0.276 | 0.344 | 0.27 | 0.166 |
| NCI-H2023 | 0.967 | 0.819 | 0.787 | 0.793 | 0.25 | 0.235 | 0.272 | 0.233 | 0.802 | 0.852 | 0.704 | 0.579 | 0.373 | 0.368 | 0.387 | 0.297 | 0.647 | 0.474 | 0.537 | 0.434 |
| NCI-H2085 | 0.749 | 0.747 | 0.813 | 0.744 | 0.441 | 0.45 | 0.425 | 0.489 | 0.393 | 0.466 | 0.492 | 0.44 | 0.465 | 0.442 | 0.469 | 0.517 | 0.564 | 0.467 | 0.54 | 0.5 |
| NCI-H2087 | 0.956 | 1.07 | 1.1 | 1.09 | 0.753 | 0.865 | 0.972 | 0.798 | 0.194 | 0.154 | 0.146 | 0.151 | 0.247 | 0.263 | 0.218 | 0.276 | 0.156 | 0.218 | 0.228 | 0.223 |
| NCI-H2126 | 0.742 | 0.718 | 0.724 | 0.701 | 0.496 | 0.517 | 0.522 | 0.506 | 0.848 | 0.828 | 0.874 | 0.725 | 0.324 | 0.322 | 0.351 | 0.359 | 0.528 | 0.546 | 0.559 | 0.536 |
| NCI-H2170 | 0.268 | 0.268 | 0.282 | 0.282 | 0.348 | 0.359 | 0.301 | 0.271 | 0.515 | 0.665 | 0.702 | 0.44 | 0.351 | 0.373 | 0.383 | 0.4 | 0.93 | 0.896 | 0.948 | 0.946 |
| NCI-H2228 | 1.19 |  | 1.18 | 1.04 | 0.451 |  | 0.229 | 0.297 | 0.104 | 0.185 | 0.167 | 0.109 | 0.955 | 0.943 | 0.955 | 0.859 | 0.54 | 0.599 | 0.494 | 0.355 |
| NCI-H2347 | 0.923 | 1.05 | 0.911 | 0.989 | 0.648 | 0.575 | 0.697 | 0.383 | 0.39 | 0.507 | 0.472 | 0.266 | 0.499 | 0.425 | 0.432 | 0.453 | 0.309 | 0.27 | 0.297 | 0.307 |
| NCI-H2405 | 1.23 | 1.2 | 0.983 | 0.895 | 0.481 | 0.449 | 0.435 | 0.311 | 0.661 | 0.645 | 0.696 | 0.439 | 0.518 | 0.514 | 0.561 | 0.383 | 0.659 | 0.653 | 0.605 | 0.396 |

From the supplement of paper PMC10307832
